From the supplement of paper PMC10307832

Assays:
Assay in all cases: relative viability (nuclei count vs DMSO), 5 days (fraction); higher = more cells survive
Ponatinib = compound: Cc1ccc(C(=O)Nc2ccc(CN3CCN(C)CC3)c(C(F)(F)F)c2)cc1C#Cc1cnc2cccnn12 [Ponatinib]
In short: (§1)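 Cells of lung cancer lines were placed in 1536-well plates and kept overnight at 37 °C. Pinning then delivered five library-drug doses (not always all listed), spaced by √10, onto plates anchored with vehicle, and the cells were left 5 days without changing medium. One step fixed, permeabilised and stained them with Hoechst, and MetaXpress counted nuclei in 4× images. Viability, as a median over plates, is treated-well nuclei divided by vehicle-well nuclei, with acceptance only at control CV below 25% and at least one doubling.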

Pazopanib = compound: Cc1ccc(Nc2nccc(N(C)c3ccc4c(C)n(C)nc4c3)n2)cc1S(N)(=O)=O [Pazopanib]
In short: as §1

Ponatinib + Navitoclax = compound: Cc1ccc(C(=O)Nc2ccc(CN3CCN(C)CC3)c(C(F)(F)F)c2)cc1C#Cc1cnc2cccnn12 [Ponatinib] + CC1(C)CCC(c2ccc(Cl)cc2)=C(CN2CCN(c3ccc(C(=O)NS(=O)(=O)c4ccc(N[C@H](CCN5CCOCC5)CSc5ccccc5)c(S(=O)(=O)C(F)(F)F)c4)cc3)CC2)C1 [Navitoclax] (partner 0.5 µM)
In short: (§2)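 Relative viability equals treated-well nuclei counts divided by vehicle-well nuclei counts. Counts came from 4× images of lung cancer cell lines grown in 1536-well plates for 5 days after pin-tool dosing on the day after seeding. Dosing used one drug alone or a fixed anchor-drug dose plus five library-drug doses (not always all listed) in √10 steps, and values are medians of duplicate plates.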

Pazopanib + Phenformin = compound: Cc1ccc(Nc2nccc(N(C)c3ccc4c(C)n(C)nc4c3)n2)cc1S(N)(=O)=O [Pazopanib] + N=C(N)NC(=N)NCCc1ccccc1 [Phenformin] (partner 250 µM)
In short: as §2

Cell Line | relative viability (Ponatinib; 0.002 µM) | relative viability (Ponatinib; 0.006325 µM) | relative viability (Ponatinib; 0.06325 µM) | relative viability (Ponatinib; 0.2 µM) | relative viability (Pazopanib; 0.01 µM) | relative viability (Pazopanib; 0.03162 µM) | relative viability (Pazopanib; 0.1 µM) | relative viability (Pazopanib; 0.3162 µM) | relative viability (Pazopanib; 1 µM) | relative viability (Ponatinib + Navitoclax; first compound 0.002 µM) | relative viability (Ponatinib + Navitoclax; first compound 0.006325 µM) | relative viability (Ponatinib + Navitoclax; first compound 0.06325 µM) | relative viability (Ponatinib + Navitoclax; first compound 0.2 µM) | relative viability (Pazopanib + Phenformin; first compound 0.01 µM) | relative viability (Pazopanib + Phenformin; first compound 0.03162 µM) | relative viability (Pazopanib + Phenformin; first compound 0.1 µM) | relative viability (Pazopanib + Phenformin; first compound 0.3162 µM) | relative viability (Pazopanib + Phenformin; first compound 1 µM)
LU99A | 0.94 | 1.02 | 0.943 | 0.939 | 0.759 | 0.909 | 1.01 | 1.03 | 1.01 | 0.715 | 0.832 | 0.886 | 0.77 | 0.725 | 0.943 | 0.796 | 0.923 | 0.945
NCI-H2405 | 0.935 | 1.06 | 1.02 | 0.847 | 0.895 | 0.998 | 1.01 | 1.04 | 1.1 | 0.855 | 0.917 | 0.844 | 0.62 | 0.368 | 0.399 | 0.426 | 0.419 | 0.448
NCI-H1993 | 1.02 | 1.03 | 1.2 | 1.05 |  | 0.791 | 0.936 | 0.983 | 0.86 | 0.881 | 1.07 | 1.25 | 0.943 |  | 0.457 | 0.502 | 0.591 | 0.496
NCI-H441 | 0.899 | 0.925 | 1.07 | 0.855 | 0.931 | 1.05 | 0.982 | 0.905 | 0.958 | 0.638 | 0.42 | 0.554 | 0.596 | 0.741 | 0.911 | 0.811 | 0.986 | 1.01
PC-14 | 0.887 | 0.984 | 1.16 | 0.993 | 1.06 | 1.07 | 1.06 | 1.1 | 1.11 | 0.927 | 1 | 1.14 | 0.919 | 0.747 | 0.692 | 0.607 | 0.823 | 0.677
HARA | 0.844 | 0.972 | 0.938 | 0.914 | 0.957 | 0.978 | 1 | 1.04 | 1.03 | 1.13 | 1.14 | 1.12 | 1.16 | 0.43 | 0.363 | 0.486 | 0.467 | 0.479
NCI-H2087 | 0.877 | 0.782 | 0.928 | 0.974 | 1.02 | 1.06 | 1.07 | 1.09 | 0.908 | 0.825 | 0.771 | 0.864 | 0.995 | 0.373 | 0.464 | 0.445 | 0.483 | 0.513
NCI-H1437 | 0.945 | 0.983 | 1.01 | 0.926 | 1 | 0.972 | 0.971 | 0.976 | 1.06 | 1.06 | 1.08 | 1.22 | 1.08 | 0.355 | 0.312 | 0.34 | 0.303 | 0.338
NCI-H1792 | 0.887 | 0.836 | 1.12 | 0.838 |  | 0.911 | 0.832 | 1.12 | 0.956 | 0.609 | 0.648 | 0.582 | 0.624 |  | 0.308 |  | 0.348 | 0.31
ChaGo-K-1 | 0.872 | 0.988 | 1 | 0.88 | 0.927 | 1.01 | 1.04 | 0.99 | 0.978 | 0.914 | 1.18 | 1.05 | 0.954 | 0.474 | 0.428 | 0.535 | 0.547 | 0.495
COR-L23 | 0.887 | 0.941 | 0.97 | 0.876 | 1.13 | 1 | 1.04 | 1.09 | 1.04 | 0.977 | 0.912 | 1 | 0.901 | 0.44 | 0.459 | 0.41 | 0.463 | 0.493
COR-L 105 | 1.01 | 0.933 | 1.18 | 1.05 | 1.08 | 0.91 | 0.95 | 1.1 | 1.14 | 0.832 | 0.8 | 0.832 | 0.955 | 0.446 | 0.553 | 0.52 | 0.724 | 0.636
LK-2 | 0.872 | 1 | 0.816 | 0.73 | 0.891 | 0.965 | 0.943 | 0.928 | 0.858 | 0.619 | 0.825 | 1.04 | 0.64 |  | 0.449 | 0.639 | 0.594 | 0.301
201T | 0.928 | 0.986 | 1.07 | 0.963 | 0.937 | 0.919 | 0.979 | 1.06 | 0.932 | 1.2 | 1.21 | 1.22 | 1.23 | 0.444 | 0.425 | 0.438 | 0.455 | 0.462
HCC-44 | 0.908 | 0.929 | 0.942 | 0.958 | 0.886 | 0.929 | 0.998 | 0.983 | 1.02 | 0.941 | 0.98 | 1.16 | 0.93 | 0.216 | 0.213 | 0.256 | 0.234 | 0.213
NCI-H647 | 0.818 | 1.05 | 1.09 | 0.769 | 0.885 | 1.08 | 0.895 | 0.956 | 1.13 | 1.04 | 1.07 | 1.21 | 0.935 | 0.483 | 0.643 | 0.541 | 0.663 | 0.615
H3255 | 0.867 | 0.97 | 0.984 | 0.908 | 0.925 | 0.965 | 0.869 | 0.998 | 1.01 | 0.477 | 0.501 | 0.725 | 0.479 | 0.298 | 0.33 | 0.365 | 0.306 | 0.367
